Test results from paper PMC8397425, “A Strategy to Conjugate Bioactive Fragments to Cytotoxic Diiron Bis(cyclopentadienyl) Complexes” (Organometallics, 2021).
Marks after values point to notes of the source that are not given here.

Experiments:
[1] = Stability in D2O/DMSO at 37 °C by 1H NMR; type: physicochemical; conditions: 24 h at 37 °C
Method: Conversely, [3–7]CF3SO3, containing either {Aryl–OCOAsp} or {Aryl-NHCOAsp} moieties, were stable under the same conditions. […] Complete conversion into the bis-hydroxide [8^2OH]^+ was achieved within 72 h. Similarly, [9,10]CF3SO3 undergo activation of the {C–Cl} bonds to give mixtures of the partially Cl/OH substituted species [9^OH]^+ and [10^OH]^+ and the fully substituted species [9^2OH]^+ and [10^2OH]^+.

[2] = Solubility in D2O by 1H NMR; type: physicochemical; conditions: Me2SO2 internal standard, T = 21 °C
Method: The solubility of the complexes in D2O was assessed using ^1H NMR spectroscopy (see Table 1 and the Experimental Section for details). […] Data from the literature for the related nonfunctionalized complexes [2′,3′]CF3SO3 are compiled in Table 1 for comparison.[11] The octanol–water partition coefficients (Log Pow) were measured using a UV–vis method and fall within the −0.2 to +1.2 range (Table 1). […] For instance, Log Pow values of 1.07 and 0.65 are obtained for the geometric isomers [9]CF3SO3 and [10]CF3SO3, respectively.

[3] = system: Human Ovarian Carcinoma (A2780) cell line; experiment: MTT cytotoxicity, A2780; type: cell-based; conditions: for IC50: 72 h exposure, MTT, mean ± SD
Excerpt: Human ovarian carcinoma (A2780 and A2780cisR) cell lines were obtained from the European Collection of Cell Cultures. The Human Embryonic Kidney 293T (HEK 293T) cell line was obtained from the ATCC (Sigma, Buchs, Switzerland). Penicillin–streptomycin, RPMI 1640 GlutaMAX (where RPMI = Roswell Park Memorial Institute), and DMEM GlutaMAX media (where DMEM = Dulbecco’s modified Eagle medium) were obtained from Life Technologies, and fetal bovine serum (FBS) was obtained from Sigma. The cells were cultured in RPMI 1640 GlutaMAX (A2780 and A2780cisR) and DMEM GlutaMAX (HEK 293T) media containing 10% heat-inactivated FBS and 1% penicillin–streptomycin at 37 °C and CO2 (5%). The A2780cisR cell line was routinely treated with cisplatin (2 μM) in the media to maintain cisplatin resistance. The cytotoxicity was determined using the 3-(4,5-dimethyl-2-thiazolyl)-2,5-diphenyl-2H-tetrazolium bromide (MTT) assay.[42] Cells were seeded in flat-bottomed 96-well plates as a suspension in a prepared medium (100 μL aliquots and approximately 4300 cells/well) and preincubated for 24 h. Stock solutions of compounds were prepared in DMSO and were diluted in the medium. The solutions were sequentially diluted to give a final DMSO concentration of 0.5% and a final compound concentration range of 0–200 μM. Cisplatin was tested as a positive (0–100 μM) control. The compounds were placed in the preincubated 96-well plates in 100 μL aliquots, and the plates were incubated for a further 72 h. MTT (20 μL, 5 mg/mL in Dulbecco’s phosphate buffered saline) was placed in the cells, and the plates were incubated for a further 4 h. The culture medium was aspirated, and the purple formazan crystals, formed by the mitochondrial dehydrogenase activity of vital cells, were dissolved in DMSO (100 μL/well). The absorbance of the resulting solutions, directly proportional to the number of surviving cells, was quantified at 590 nm using a SpectroMax M5e multimode microplate reader (using SoftMax Pro software, version 6.2.2). The percentage of surviving cells was calculated from the absorbance of wells corresponding to the untreated control cells. The reported IC50 values are based on the means from two independent experiments, each comprising four tests per concentration level.

| Substance | stability (%), total percentage of diiron complexes with a chlorambucil-like group ([1]; D2O/DMSO 1/1 v/v) | solubility [2] | IC50 [3] | selectivity (SI) ([3]; HEK 293T relative to A2780) | stability (%), residual percent of complex ([1]; D2O/DMSO 2/1 v/v) |
| --- | --- | --- | --- | --- | --- |
| [Fe2Cp2(CO)(μ-CO){μ-η^1:η^3-Cγ(3-C6H4NHC(=O)(CH2)3C6H4N(CH2CH2Cl)2)CβHCαNMe2}]CF3SO3 [[9]CF3SO3] | 88 ^b % | <1 × 10^–4 mol L^–1 | 1800 ± 300 nM | 5 | – |
| [Fe2Cp2(CO)(μ-CO){μ-η^1:η^3-Cγ(3-C6H4OC(=O)C6H4OC(=O)Me)CβHCαNMe(Xyl)}]CF3SO3 [[4]CF3SO3] | – | <1 × 10^–4 mol L^–1 | 2800 ± 400 nM | – | 59% |
